Test results reported in the supplement of paper PMC6045584.
± gives the standard deviation of the averaged measurements.

Experiments:
FORETINIB = compound: COc1cc2c(Oc3ccc(NC(=O)C4(C(=O)Nc5ccc(F)cc5)CC4)cc3F)ccnc2cc1OCCCN1CCOCC1 [FORETINIB]; experiment: surviving fraction relative to DMSO-only wells; higher = less growth inhibition; settings: exposure time: 5 days
Method in brief: (§1)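 Log-phase tumour cells were seeded at 250–500 per well in 384-well plates and, from 24 hours after seeding, exposed continuously for five days to inhibitors at 0.5, 1, 5, 10, 50, 100, 500 and 1000 nM. Surviving fraction is CellTiter-Glo luminescence normalised to the median of DMSO-only wells. Luminescence was measured after 10 minutes at room temperature, and only lines screened three times with replicate Pearson r >0.7 and median Z' >0.3 were kept.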

CRIZOTINIB = compound: C[C@@H](Oc1cc(-c2cnn(C3CCNCC3)c2)cnc1N)c1c(Cl)ccc(F)c1Cl [CRIZOTINIB]; experiment: as above; settings: exposure time: 5 days
Method in brief: as §1

Row | Test System | surviving fraction (FORETINIB; 0.5 nM) | surviving fraction (FORETINIB; 1 nM) | surviving fraction (FORETINIB; 5 nM) | surviving fraction (FORETINIB; 10 nM) | surviving fraction (FORETINIB; 50 nM) | surviving fraction (FORETINIB; 100 nM) | surviving fraction (FORETINIB; 500 nM) | surviving fraction (FORETINIB; 1000 nM) | surviving fraction (CRIZOTINIB; 0.5 nM) | surviving fraction (CRIZOTINIB; 1 nM) | surviving fraction (CRIZOTINIB; 50 nM) | surviving fraction (CRIZOTINIB; 100 nM) | surviving fraction (CRIZOTINIB; 1000 nM) | surviving fraction (CRIZOTINIB; 5 nM) | surviving fraction (CRIZOTINIB; 10 nM) | surviving fraction (CRIZOTINIB; 500 nM)
1 | 22RV1 PROSTATE | 1.02 ± 0.065 | 1.04 ± 0.033 | 0.98 ± 0.15 | 0.984 ± 0.043 | 0.965 ± 0.12 | 0.99 ± 0.17 | 0.611 ± 0.061 | 0.511 ± 0.015 | 0.993 ± 0.1 | 1.11 ± 0.083 | 1.11 ± 0.091 | 0.976 ± 0.16 | 0.459 ± 0.024 | – | – | –
2 | 93VU HEADNECK | 1.21 ± 0.1 | 1.21 ± 0.048 | 1.2 ± 0.13 | 1.07 ± 0.039 | 1.04 ± 0.024 | 1.04 ± 0.025 | 0.849 ± 0.13 | 0.224 ± 0.076 | 1.08 ± 0.14 | 1.09 ± 0.072 | 1.14 ± 0.14 | 1.18 ± 0.081 | 0.853 ± 0.038 | 1.08 ± 0.12 | 1.16 ± 0.037 | –
3 | 143B BONE | 1.05 ± 0.046 | 1.03 ± 0.033 | 1.04 ± 0.015 | 1.02 ± 0.05 | 1.01 ± 0.0099 | 1.038 ± 0.0035 | 0.86 ± 0.015 | 0.755 ± 0.03 | – | – | 1.09 ± 0.015 | – | 0.865 ± 0.011 | 1.08 ± 0.012 | – | –
4 | A549 LUNG | 1.083 ± 0.0085 | 1.1 ± 0.018 | 1.08 ± 0.028 | 1.05 ± 0.016 | 1.06 ± 0.045 | 1.06 ± 0.041 | 0.703 ± 0.012 | 0.542 ± 0.021 | 1.07 ± 0.027 | 1.07 ± 0.015 | 1.09 ± 0.023 | 1.1 ± 0.025 | 0.649 ± 0.07 | – | – | 1.09 ± 0.043
5 | ASKA SYNOVIAL | 1.11 ± 0.065 | 1.14 ± 0.037 | 1.06 ± 0.085 | 1.07 ± 0.075 | 1.13 ± 0.042 | 1.03 ± 0.044 | 0.371 ± 0.026 | 0.297 ± 0.0071 | – | 0.942 ± 0.039 | 0.539 ± 0.043 | 0.405 ± 0.016 | 0.205 ± 0.0093 | 0.848 ± 0.05 | 0.7377 ± 0.007 | 0.168 ± 0.0038
6 | BT20 BREAST | 1.11 ± 0.032 | 1.14 ± 0.13 | 1.12 ± 0.026 | 1.13 ± 0.045 | 1.22 ± 0.12 | 1.13 ± 0.037 | 0.382 ± 0.091 | 0.136 ± 0.017 | 1.24 ± 0.013 | 1.23 ± 0.091 | 1.05 ± 0.067 | 1.08 ± 0.031 | 0.592 ± 0.095 | 1.13 ± 0.059 | 1.25 ± 0.05 | 1.13 ± 0.088
7 | BT549 BREAST | 1.09 ± 0.059 | 1.08 ± 0.059 | 1.09 ± 0.15 | 1.12 ± 0.089 | 1.08 ± 0.12 | 1.15 ± 0.12 | 0.701 ± 0.022 | 0.222 ± 0.014 | – | 1.07 ± 0.056 | 1.05 ± 0.062 | 1.09 ± 0.097 | 0.375 ± 0.016 | – | 1.06 ± 0.041 | –
8 | C33A CERVIX | 1.02 ± 0.059 | 1.06 ± 0.086 | 1.1 ± 0.042 | 1.14 ± 0.098 | 1.03 ± 0.041 | 1.04 ± 0.047 | 0.596 ± 0.057 | 0.508 ± 0.029 | 0.954 ± 0.064 | 0.983 ± 0.088 | – | – | 0.828 ± 0.092 | – | 1.04 ± 0.13 | 0.925 ± 0.076
9 | CADOES1 SOFT TISSUE | 0.986 ± 0.23 | 0.887 ± 0.17 | 0.988 ± 0.25 | 0.876 ± 0.043 | 0.947 ± 0.02 | 0.795 ± 0.1 | 0.109 ± 0.011 | 0.088 ± 0.0062 | – | 0.892 ± 0.084 | 0.902 ± 0.073 | 0.949 ± 0.077 | 0.314 ± 0.06 | 0.953 ± 0.13 | 0.91 ± 0.11 | 0.713 ± 0.18
10 | CAL51 BREAST | 0.991 ± 0.039 | 0.964 ± 0.053 | 1.04 ± 0.011 | 0.9858 ± 0.0063 | 0.993 ± 0.064 | 0.979 ± 0.052 | 0.162 ± 0.0044 | 0.136 ± 0.01 | 0.981 ± 0.081 | 1.03 ± 0.034 | 1.01 ± 0.05 | 1.05 ± 0.046 | 0.213 ± 0.012 | 1.03 ± 0.012 | 1.07 ± 0.052 | 0.232 ± 0.024
